The source of these data is ChEMBL document CHEMBL5608175, “Lipid-conjugated nucleoside monophosphate and monophosphonate prodrugs: A versatile drug delivery paradigm” (Eur J Med Chem, 2024).

For data set [1], the system named is SARS-CoV-2. The data set is described as follows: Antiviral activity against SARS CoV-2 USA-WA1/2020 clinical isolate infected in human Calu-3 cells assessed as reduction in viral infection. Particulars: Severe acute respiratory syndrome coronavirus 2, USA-WA1/2020, Calu-3. Type of data set: functional, organism-based.
The target in data set [2] is Human immunodeficiency virus type 1 reverse transcriptase (Human immunodeficiency virus 1, UniProt Q72547). The data set is described as follows: Inhibition of HIV-1 reverse transcriptase.
Data set [3] in a line: Cytotoxicity against African green monkey Vero E6 cells. Particulars: chlorocebus sabaeus. Type of data set: toxicity, cell-based, Vero C1008.
A short description of data set [4]: Metabolic stability in human liver microsomes assessed as half life. Type of data set: ADME, Microsome. Particulars: for half-life: liver microsomes.
Data set [5] relates to SARS-CoV-2. In words: Antiviral activity against SARS-CoV-2 2019-nCoV/USA_WA1/2020 infected in human Huh7.5 cells assessed as reduction in viral replication pre-treated with compound for 30 mins followed by viral infection and measured after 48 hrs. Type of data set: functional, organism-based. Particulars: Severe acute respiratory syndrome coronavirus 2, 2019-nCoV/USA_WA1/2020, Huh7.5.

For data set [6], the system named is SARS-CoV-2. The data set is described as follows: Antiviral activity against SARS-CoV-2 2019-nCoV/USA_WA1/2020 infected in African green monkey Vero E6 cells assessed as reduction in viral replication pre-treated with compound for 30 mins followed by viral infection and measured after 48 hrs. Type of data set: functional, organism-based. Particulars: Severe acute respiratory syndrome coronavirus 2, 2019-nCoV/USA_WA1/2020, Vero C1008.

The test system of data set [7] is SARS-CoV-2. In words: Antiviral activity against SARS-CoV-2 2019-nCoV/USA_WA1/2020 infected in human Calu-3 cells assessed as reduction in viral replication pre-treated with compound for 30 mins followed by viral infection and measured after 48 hrs. Type of data set: functional, organism-based. Particulars: Severe acute respiratory syndrome coronavirus 2, 2019-nCoV/USA_WA1/2020, Calu-3.

Data set [8] has as its system SARS-CoV-2. In words: Antiviral activity against SARS-CoV-2 2019-nCoV/USA_WA1/2020 infected in human PSC-derived lung epithelial cell assessed as reduction in viral replication pre-treated with compound for 30 mins followed by viral infection and measured after 48 hrs. Particulars: Severe acute respiratory syndrome coronavirus 2, 2019-nCoV/USA_WA1/2020, Epithelial cell. Type of data set: functional, organism-based.

Data set [9] relates to SARS-CoV-2. In words: Antiviral activity against SARS-CoV-2 2019-nCoV/USA_WA1/2020 infected in human Caco-2 cells assessed as reduction in viral replication pre-treated with compound for 30 mins followed by viral infection and measured after 48 hrs. Type of data set: functional, organism-based. Particulars: Severe acute respiratory syndrome coronavirus 2, 2019-nCoV/USA_WA1/2020, Caco-2.

Structures are written as SMILES.

Usually EC50 stands for the concentration needed to bring the measured effect to its halfway point. A word on the IC50: it is the concentration that gives 50% inhibition. As a reminder, the CC50 is the concentration giving 50% cytotoxicity. By half-life is commonly meant the time needed for the level to fall by half in the phase considered.

On to `CCCCCCCCCCCCCCCCCCOC[C@@H](COP(=O)(O)OC[C@H]1O[C@@](C#N)(c2ccc3c(N)ncnn23)[C@H](O)[C@@H]1O)OCc1cccc(C#N)c1`, for which, in [1], the concentration for a half-maximal effect (EC50) worked out at 34 nM.
In [2], `CCCCCCCCCCCCCCCCSCCCOP(=O)(O)CO[C@H](C)Cn1cnc2c(N)ncnc21` registered an IC50 of 10 nM. The midpoint of cytotoxicity in data set [3], the CC50, lay at 49800 nM. Also, in data set [4] (microsomes), the t1/2 was found to be 42 min.
Take `CCCCCCCCOCCCCCOCCCCCOP(=O)(O)CO[C@H](C)Cn1cnc2c(N)ncnc21`: the IC50 in [2] was 4000 nM. In data set [3], this compound showed a CC50 above 100000 nM. In [4], the half-life is 12 min.
`C[C@H](Cn1cnc2c(N)ncnc21)OCP(=O)(O)OCCOCCCCCCCCCCCCCCCCC(F)(F)F` showed an IC50 in [2] of 10 nM. In addition, the CC50 in data set [3] came out at 85100 nM. Moreover, the half-life in data set [4] was above 120 min.
For `CCCCCCCCCCCCCCCCCOCCOP(=O)(O)CO[C@H](C)Cn1cnc2c(N)ncnc21`, in that order: 3 nM, 69600 nM and 35 min.
For `C[C@H](Cn1cnc2c(N)ncnc21)OCP(=O)(O)OCCOCCCCCCCCCCCCc1ccc(S(F)(F)(F)(F)F)cc1` the same measures were 20 nM, above 100000 nM and above 120 min.
`CCCCCCCCCCCCCCCCCCOC[C@@H](COP(=O)(O)OC[C@H]1O[C@@](C#N)(c2ccc3c(N)ncnn23)[C@H](O)[C@@H]1O)OCc1ccccc1`: the EC50 in [5] came out at 300 nM; in data set [6] it was 140 nM; in data set [7] it was 300 nM; in data set [8], 150 nM; in [9] it was 140 nM.
`C[C@H](Cn1cnc2c(N)ncnc21)OCP(=O)(O)OCCOCCCCCCCCCCCCCCC#CC(F)(F)F` registered a half-inhibitory concentration (IC50) in data set [2] of 10 nM. This compound had a CC50 in data set [3] above 100000 nM. In addition, the half-life in data set [4] is above 120 min.
Take `CCCCOCCCCCOCCCCCOCCCOP(=O)(O)CO[C@H](C)Cn1cnc2c(N)ncnc21`: the IC50 in data set [2] stood at 32000 nM. The cytotoxic concentration (CC50) in data set [3] is above 100000 nM.
On to `CCCCCCCCCCCCCCOCCCCCOP(=O)(O)CO[C@H](C)Cn1cnc2c(N)ncnc21`, for which the 50% inhibitory concentration (IC50) in data set [2] was found to be 52 nM. The same compound yielded a 50% cytotoxic concentration (CC50) in [3] above 100000 nM. Besides, in data set [4], the half-life was found to be 31 min.
For the compound `CCCCCCCCCCCCCCCCCCOC[C@@H](COP(=O)(O)OC[C@H]1O[C@@](C#N)(c2ccc3c(N)ncnn23)[C@H](O)[C@@H]1O)OCc1ccc(OC)c(F)c1`, the half-maximal effective concentration (EC50) in data set [1] is 70 nM.
The compound `CCCCCCCCCCCCCCCCCCOCCOP(=O)(O)CO[C@H](C)Cn1cnc2c(N)ncnc21` had an IC50 in data set [2] of 3 nM. It took 53800 nM to reach half-maximal cytotoxicity in [3] (CC50). The half-life in data set [4] is 105 min.
For `C[C@H](Cn1cnc2c(N)ncnc21)OCP(=O)(O)OCCOCCCCCCCCCCCCCCCC(F)(F)F`, in that order: 8 nM, above 100000 nM and above 120 min.
With `C[C@H](Cn1cnc2c(N)ncnc21)OCP(=O)(O)OCCOCCCCCCCCCCCCCC#CC(F)(F)F`, in data set [2], the IC50 amounted to 16 nM. In data set [3], this compound had a CC50 above 100000 nM. Also, in data set [4], the half-life is above 120 min.
For `CCCCCCCCCCCCCCCOCCCCOP(=O)(O)CO[C@H](C)Cn1cnc2c(N)ncnc21` the same measures were 30 nM, above 100000 nM and 48 min.
`C[C@H](Cn1cnc2c(N)ncnc21)OCP(=O)(O)OCCOCCCCCCCCCCC#Cc1ccc(S(F)(F)(F)(F)F)cc1`: the half-maximal inhibitory concentration (IC50) in data set [2] is 10 nM. The compound also gave a CC50 in data set [3] above 100000 nM. Besides, the half-life in data set [4] is above 120 min.
For `C[C@H](Cn1cnc2c(N)ncnc21)OCP(=O)(O)O` [TENOFOVIR ANHYDROUS], in that order: 1600 nM, 35400 nM and above 120 min.
With `CCCCCCCCCCCCCCCCCCCCOP(=O)(O)CO[C@H](C)Cn1cnc2c(N)ncnc21`, in data set [2], the IC50 came to 127 nM. Moreover, the midpoint of cytotoxicity in data set [3], the CC50, lay at 13200 nM. Further, in data set [4], the half-life was determined as 49 min.
Take `CCCCCCCCCCCCCCCCCCOC[C@@H](COP(=O)(O)OC[C@H]1O[C@@](C#N)(c2ccc3c(N)ncnn23)[C@H](O)[C@@H]1O)OCc1ccc(C#N)cc1`: the half-maximal effective concentration (EC50) in data set [1] turned out to be 43 nM.
